What is called IC50 is the concentration that inhibits the measured activity by half.

Read-outs that look alike come from different tables or passages of the source. *1 amine or outer side, *2 acyl side, *3 side chain or, on linkers, in order; H or OH if unused. Where a SMILES comes first, the peptide text is derived from it. [ ]: non-standard residue; d: D form. The star is where a group is joined. ξ: configuration not given here. Camptothecin(20R,20-O) = CC[C@]1(O*)C(=O)OCc2c1cc1n(c2=O)Cc2cc3ccccc3nc2-1; X1 = CCCNC(=O)Nc1cccc(S(=O)(=O)Nc2cccc(C(CC(=O)O)N*)c2)c1; NH(1,4-C6H4)NHCS = S=C(Nc1ccc(N[*:1])cc1)[*:2]; ξH = NC(Cc1c[nH]cn1)C(=O)O; CO = O=C([*:1])[*:2]

These results are taken from patent US20020183256A1, “Cytostatic-integrin conjugates having specifically cleavable linking units” (priority 2000, published 2002).

Holding throughout (assay): Growth inhibition test (MTT), cytotoxic action on tumour cell lines
The subject of one data set is HT29. The class given is cell-based, human. The method, then: (§1) The human large intestine cell lines SW 480 and HT29 (ATCC No. CCL 228 and HTB38 and the mouse melanoma cell line B16F10 (CRL 6475) were grown to confluence in Roux dishes in RPMI 1640 medium with addition of 10% FCS. They were then trypsinized and taken up in RPMI plus 10% FCS to a cell count of 50,000 cells or, for B16F10, 20,000 cells per ml. 100 μl of cell suspension/well were added to a 96 microwell plate and incubated at 37° C. for 1 day in a CO2 incubator. A further 100 μl of RPMI medium and 1 μl of DMSO were then added with the test substances. The growth was checked after day 6. For this, 25 μl of MTT solution (3-(4,5-dimethylthiazol-2-yl)-2,5-diphenyltetrazolium bromide) was added to each well at a starting concentration of 5 mg/ml of H2O. The plate was incubated at 37° C. for 5 hours in a CO2 incubator. The medium was then aspirated and 100 μl of i-propanol/well were added. After shaking with 100 μl of H2O for 30 min, the extinction was measured at 595 nm using a Multiplate Reader (BIO-RAD) 3550-UV).
(§2) The cytostatic action is indicated in Table 2 as an IC50 value, in each case for the individual cell lines.

Another data set deals with SW 480. Format: cell-based, human. As for the experimental part: as §1, §2
A further data set concerns B16F10. Format: cell-based, mouse. As for the experimental part: as §1, §2
The mark [1] stands for this setting: HT29, MTT after day 6, read-out: IC50 values of the cytotoxic action on tumour cell lines, HT29.
Setting [2] is: SW480, MTT after day 6, read-out: IC50 values of the cytotoxic action on tumour cell lines, SW480.
[3] abbreviates: B16F10, MTT after day 6, read-out: IC50 values of the cytotoxic action on tumour cell lines, B16F10.

Regarding `CCCNC(=O)Nc1cccc(S(=O)(=O)Nc2cccc(C(CC(=O)O)NC(=O)Nc3ccc(NC(=S)N4CCC[C@@H]4C(=O)N[C@@H](CC(C)C)C(=O)NCC(=O)N[C@H](CCC)C(=O)N[C@H](CC(N)=O)C(=O)N[C@@H](C(=O)O[C@@]4(CC)C(=O)OCc5c4cc4n(c5=O)Cc5cc6ccccc6nc5-4)C(C)C)cc3)c2)c1` (single isomer, unassigned) [Example 21], the IC50 with HT29 (setting [1]) was determined as 30 nM; with SW 480 (setting [2]) it was 60 nM; in the data set with B16F10 (setting [3]), 200 nM.
On to `CCCCNC(=O)Nc1cccc(S(=O)(=O)Nc2cccc(C(CC(=O)O)NC(=O)Nc3ccc(NC(=S)NCC(=O)N4CCC[C@@H]4C(=O)N[C@@H](CC(C)C)C(=O)NCC(=O)N[C@H](CC(C)C)C(=O)N[C@H](CC(N)=O)C(=O)N[C@@H](C(=O)O[C@@]4(CC)C(=O)OCc5c4cc4n(c5=O)Cc5cc6ccccc6nc5-4)C(C)C)cc3)c2)c1` (single isomer, unassigned) [Example 22], for which the IC50 in the data set on HT29 (setting [1]) was 15 nM; in the data set with SW 480 (setting [2]), 30 nM; with B16F10 (setting [3]), 90 nM.
Regarding `CCCNC(=O)Nc1cccc(S(=O)(=O)Nc2cccc(C(CC(=O)O)NC(=O)Nc3ccc(NC(=S)N4CCC[C@@H]4C(=O)N[C@@H](CC(C)C)C(=O)NCC(=O)N[C@H](Cc4c[nH]cn4)C(=O)N[C@@H](C(=O)O[C@@]4(CC)C(=O)OCc5c4cc4n(c5=O)Cc5cc6ccccc6nc5-4)C(C)C)cc3)c2)c1` (single isomer, unassigned) [Example 26], the IC50 is 50 nM with HT29 (setting [1]), 90 nM in the data set on SW 480 (setting [2]) and 300 nM in the data set on B16F10 (setting [3]).
Consider `CCCNC(=O)Nc1cccc(S(=O)(=O)Nc2cccc(C(CC(=O)O)NC(=O)Nc3ccc(NC(=S)N4CCC[C@@H]4C(=O)N[C@@H](CC(C)C)C(=O)NCC(=O)N[C@H](CC(C)C)C(=O)N[C@@H](C(=O)O[C@@]4(CC)C(=O)OCc5c4cc4n(c5=O)Cc5cc6ccccc6nc5-4)C(C)C)cc3)c2)c1` (single isomer, unassigned) [Example 27], for which the values for the IC50 with HT29 (setting [1]), with SW 480 (setting [2]) and in the data set on B16F10 (setting [3]) were 150 nM, 200 nM and 800 nM, respectively.
Take `CCCNC(=O)Nc1cccc(S(=O)(=O)Nc2cccc(C(CC(=O)O)NC(=O)Nc3ccc(NC(=S)N4CCC[C@@H]4C(=O)N4CCC[C@@H]4C(=O)N[C@@H](CC(C)C)C(=O)NCC(=O)N[C@H](CC(C)C)C(=O)N[C@H](CC(N)=O)C(=O)N[C@@H](C(=O)O[C@@]4(CC)C(=O)OCc5c4cc4n(c5=O)Cc5cc6ccccc6nc5-4)C(C)C)cc3)c2)c1` (single isomer, unassigned) [Example 28]: the IC50 in the data set with HT29 (setting [1]) came out at 30 nM; with SW 480 (setting [2]), 30 nM; in the data set with B16F10 (setting [3]) it was 250 nM.
For the compound `CCCNC(=O)Nc1cccc(S(=O)(=O)Nc2cccc(C(CC(=O)O)NC(=O)Nc3ccc(NC(=S)NCC(=O)N4CCC[C@@H]4C(=O)N[C@@H](CC(C)C)C(=O)NCC(=O)N[C@H](CC(C)C)C(=O)N[C@H](Cc4c[nH]cn4)C(=O)N[C@@H](C(=O)O[C@@]4(CC)C(=O)OCc5c4cc4n(c5=O)Cc5cc6ccccc6nc5-4)C(C)C)cc3)c2)c1` (single isomer, unassigned) [Example 29], the values for the IC50 with HT29 (setting [1]), in the data set on SW 480 (setting [2]) and in the data set with B16F10 (setting [3]) were 80 nM, 100 nM and 400 nM, respectively.
In the case of `CCCNC(=O)Nc1cccc(S(=O)(=O)Nc2cccc(C(CC(=O)O)NC(=O)Nc3ccc(NC(=S)N4CCC[C@@H]4C(=O)NCC(=O)NCC(=O)N[C@H](CC(C)C)C(=O)N[C@H](CC(N)=O)C(=O)N[C@@H](C(=O)O[C@@]4(CC)C(=O)OCc5c4cc4n(c5=O)Cc5cc6ccccc6nc5-4)C(C)C)cc3)c2)c1` (stereo partly drawn) [Example 23] ({X1-CO}-[NH(1,4-C6H4)NHCS][dP]GG[dL][dN][dV]-{Camptothecin(20R,20-O)}), the IC50 stood at 150 nM in the data set with HT29 (setting [1]), 400 nM in the data set with SW 480 (setting [2]) and 1500 nM with B16F10 (setting [3]).
As for `CCCNC(=O)Nc1cccc(S(=O)(=O)Nc2cccc(C(CC(=O)O)NC(=O)Nc3ccc(NC(=S)N4CCC[C@@H]4C(=O)NC(Cc4c[nH]cn4)C(=O)NCC(=O)N[C@H](CC(C)C)C(=O)N[C@H](CC(N)=O)C(=O)N[C@@H](C(=O)O[C@@]4(CC)C(=O)OCc5c4cc4n(c5=O)Cc5cc6ccccc6nc5-4)C(C)C)cc3)c2)c1` (stereo partly drawn) [Example 24] ({X1-CO}-[NH(1,4-C6H4)NHCS][dP][ξH]G[dL][dN][dV]-{Camptothecin(20R,20-O)}), the IC50 is 150 nM with HT29 (setting [1]), 400 nM in the data set on SW 480 (setting [2]) and 900 nM with B16F10 (setting [3]).
In the case of `CCCNC(=O)Nc1cccc(S(=O)(=O)Nc2cccc(C(CC(=O)O)NC(=O)Nc3ccc(NC(=S)N4CCC[C@H]4C(=O)N[C@@H](CC(C)C)C(=O)NCC(=O)N[C@@H](CC(C)C)C(=O)N[C@@H](C)C(=O)N[C@H](C(=O)O[C@]4(CC)C(=O)OCc5c4cc4n(c5=O)Cc5cc6ccccc6nc5-4)C(C)C)cc3)c2)c1` (stereo partly drawn) [Example 30], the figures for the IC50 in the data set on HT29 (setting [1]) and with SW 480 (setting [2]) were 400 nM and 500 nM, respectively.
For `CCCNC(=O)Nc1cccc(S(=O)(=O)Nc2cccc(C(CC(=O)O)NC(=O)Nc3ccc(NC(=S)N4CCC[C@H]4C(=O)N[C@@H](CC(C)C)C(=O)NCC(=O)N[C@@H](CC(C)C)C(=O)N[C@H](C)C(=O)N[C@H](C(=O)O[C@]4(CC)C(=O)OCc5c4cc4n(c5=O)Cc5cc6ccccc6nc5-4)C(C)C)cc3)c2)c1` (stereo partly drawn) [Example 31], the IC50 in the data set with HT29 (setting [1]) was found to be 250 nM; in the data set with SW 480 (setting [2]), 300 nM.
Turning to `CCCNC(=O)Nc1cccc(S(=O)(=O)Nc2cccc(C(CC(=O)O)NC(=O)Nc3ccc(NC(=S)N4CCC[C@H]4C(=O)N[C@@H](CC(C)C)C(=O)NCC(=O)N[C@@H](CC(C)C)C(=O)N[C@H](C(=O)N[C@H](C(=O)O[C@]4(CC)C(=O)OCc5c4cc4n(c5=O)Cc5cc6ccccc6nc5-4)C(C)C)C(C)C)cc3)c2)c1` (stereo partly drawn) [Example 32], the results for the IC50 with HT29 (setting [1]), with SW 480 (setting [2]) and in the data set with B16F10 (setting [3]) were 100 nM, 120 nM and 200 nM, respectively.
For `CCCNC(=O)Nc1cccc(S(=O)(=O)Nc2cccc(C(CC(=O)O)NC(=O)Nc3ccc(NC(=S)N4CCC[C@H]4C(=O)N[C@@H](CC(C)C)C(=O)NCC(=O)N[C@@H](CC(C)C)C(=O)N[C@@H](Cc4ccccc4)C(=O)N[C@H](C(=O)O[C@]4(CC)C(=O)OCc5c4cc4n(c5=O)Cc5cc6ccccc6nc5-4)C(C)C)cc3)c2)c1` (stereo partly drawn) [Example 33], in that order: 300 nM, 400 nM and 1000 nM.
As for `CCCNC(=O)Nc1cccc(S(=O)(=O)Nc2cccc(C(CC(=O)O)NC(=O)Nc3ccc(NC(=S)N4CCC[C@H]4C(=O)N[C@@H](CC(C)C)C(=O)NCC(=O)N[C@@H](CC(C)C)C(=O)N[C@@H](CO)C(=O)N[C@H](C(=O)O[C@]4(CC)C(=O)OCc5c4cc4n(c5=O)Cc5cc6ccccc6nc5-4)C(C)C)cc3)c2)c1` (stereo partly drawn) [Example 34], the values for the IC50 with HT29 (setting [1]), in the data set with SW 480 (setting [2]) and with B16F10 (setting [3]) were 50 nM, 100 nM and 800 nM, respectively.
For `CCCNC(=O)Nc1cccc(S(=O)(=O)Nc2cccc(C(CC(=O)O)NC(=O)Nc3ccc(NC(=S)N4CCC[C@H]4C(=O)N[C@@H](CC(C)C)C(=O)NCC(=O)N[C@@H](CC(C)C)C(=O)N[C@H](C(=O)N[C@H](C(=O)O[C@]4(CC)C(=O)OCc5c4cc4n(c5=O)Cc5cc6ccccc6nc5-4)C(C)C)C(C)CC)cc3)c2)c1` (stereo partly drawn) [Example 35], in that order: 150 nM, 200 nM and 800 nM.
For the compound `CCCNC(=O)Nc1cccc(S(=O)(=O)Nc2cccc(C(CC(=O)O)NC(=O)Nc3ccc(NC(=S)N4CCC[C@H]4C(=O)N[C@@H](CC(C)C)C(=O)NCC(=O)N[C@@H](CC(C)C)C(=O)N[C@@H](CCC(=O)O)C(=O)N[C@H](C(=O)O[C@]4(CC)C(=O)OCc5c4cc4n(c5=O)Cc5cc6ccccc6nc5-4)C(C)C)cc3)c2)c1` (stereo partly drawn) [Example 36], the IC50 in the data set with HT29 (human, 6 day) worked out at 100 nM; with SW 480 (human, 6 day) it was 150 nM; in the data set with B16F10 (mouse, 6 day) it was 300 nM.
Take `CCCNC(=O)Nc1cccc(S(=O)(=O)Nc2cccc(C(CC(=O)O)NC(=O)Nc3ccc(NC(=S)N4CCC[C@H]4C(=O)N[C@@H](CC(C)C)C(=O)NCC(=O)N[C@@H](CC(C)C)C(=O)NCC(=O)N[C@H](C(=O)O[C@]4(CC)C(=O)OCc5c4cc4n(c5=O)Cc5cc6ccccc6nc5-4)C(C)C)cc3)c2)c1` (stereo partly drawn) [Example 37]: the values for the IC50 in the data set with HT29 (setting [1]) and in the data set on SW 480 (setting [2]) were 300 nM and 500 nM, respectively.
For the compound `CCCNC(=O)Nc1cccc(S(=O)(=O)Nc2cccc(C(CC(=O)O)NC(=O)Nc3ccc(NC(=S)N4CCC[C@H]4C(=O)N[C@@H](CC(C)C)C(=O)NCC(=O)N[C@@H](CC(C)C)C(=O)N4CCC[C@H]4C(=O)N[C@H](C(=O)O[C@]4(CC)C(=O)OCc5c4cc4n(c5=O)Cc5cc6ccccc6nc5-4)C(C)C)cc3)c2)c1` (stereo partly drawn) [Example 38], the IC50 amounted to 150 nM with HT29 (setting [1]), 200 nM in the data set on SW 480 (setting [2]) and 1000 nM with B16F10 (setting [3]).
